Measurements reported in BindingDB's records for doi:10.1021/acs.jmedchem.6b00594 (Duquesne University, 2016).

Key:
[1] = Inhibition of human PCFT expressed in Chinese hamster R2/PCFT4 cells assessed as antiproliferative activity measured as reduction in cell viability after 96 hrs by Cell-Titer Blue fluorescence analysis
[2] = Inhibition of human FR-alpha receptor expressed in Chinese hamster RT16 cells assessed as antiproliferative activity measured as reduction in cell viability after 96 hrs by Cell-Titer Blue fluorescence analysis
[3] = Inhibition of human RFC expressed in Chinese hamster PC43-10 cells assessed as antiproliferative activity measured as reduction in cell viability after 96 hrs by Cell-Titer Blue fluorescence analysis
[4] = Inhibition of human FR-beta receptor expressed in Chinese hamster D4 cells assessed as antiproliferative activity measured as reduction in cell viability after 96 hrs by Cell-Titer Blue fluorescence analysis

SMILES: Nc1nc2[nH]c(CCOc3ccc(C(=O)N[C@@H](CCC(=O)O)C(=O)O)cc3)cc2c(=O)[nH]1
- IC50 [1]: 58 nM
- IC50 [2]: 1.9 nM
- IC50 [3]: 641 nM
- IC50 [4]: 2.6 nM

SMILES: Nc1nc2[nH]c(CCNc3ccc(C(=O)N[C@@H](CCC(=O)O)C(=O)O)cc3)cc2c(=O)[nH]1
- IC50 [1]: 87 nM
- IC50 [2]: 3 nM
- IC50 [3]: 510 nM
- IC50 [4]: 0.62 nM

SMILES: CC(=O)N(CCc1cc2c(=O)[nH]c(N)nc2[nH]1)c1ccc(C(=O)N[C@@H](CCC(=O)O)C(=O)O)cc1
- IC50 [1]: 82 nM
- IC50 [2]: 4.9 nM
- IC50 [3]: 808 nM
- IC50 [4]: 1.6 nM

SMILES: Nc1nc2[nH]c(CCN(C=O)c3ccc(C(=O)N[C@@H](CCC(=O)O)C(=O)O)cc3)cc2c(=O)[nH]1
- IC50 [1]: 89 nM
- IC50 [2]: 3 nM
- IC50 [3]: 642 nM
- IC50 [4]: 0.53 nM

SMILES: Nc1nc2[nH]c(CCSc3ccc(C(=O)N[C@@H](CCC(=O)O)C(=O)O)cc3)cc2c(=O)[nH]1
- IC50 [1]: 267 nM
- IC50 [2]: 0.51 nM
- IC50 [3]: > 1000 nM
- IC50 [4]: 0.34 nM

SMILES: Nc1nc2[nH]c(CCN(C(=O)C(F)(F)F)c3ccc(C(=O)N[C@@H](CCC(=O)O)C(=O)O)cc3)cc2c(=O)[nH]1
- IC50 [1]: 109 nM
- IC50 [2]: 1.1 nM
- IC50 [3]: 783 nM
- IC50 [4]: 0.45 nM
